Experimental data as given in patent US12643871B2, “Aryl formamide compound containing chiral sulfur oxide or salt thereof, preparation method, herbicidal composition and use thereof” (Qingdao Kingagroot Chemical Compound Co., Ltd., priority 2019, dated 2026).

Assays:
Test in all cases: Weeding effect in post-emergence stage
Type in all cases: in vivo
Details in all cases: 250 g/ha; 2 leaf stage; 15 days after application; fresh weight control rate
Abutilon theophrasti = test system: Abutilon theophrasti
Method in brief: (§1)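 Post-emergence spray, 2-leaf stage; doses 500–15 g/ha; acetone + Tween 80 + methyl oleate EC (1.5 L/ha) as synergist. Greenhouse 15 d. Readout: fresh weight control rate graded levels 0–5 (5 = above 85%, 0 = below 5%); triplicate means.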

Amaranthus retroflexus = test system: Amaranthus retroflexus
Method in brief: as §1

Digitaria sanguinalis = test system: Digitaria sanguinalis
Method in brief: as §1

Echinochloa crusgali = test system: Echinochloa crusgali
Method in brief: as §1

Setaria viridis = test system: Setaria viridis
Method in brief: as §1

Row | Structure (SMILES) | weeding effect in post-emergence stage, activity level (growth control rate), Abutilon theophrasti (Abutilon theophrasti) | weeding effect in post-emergence stage, activity level (growth control rate), Amaranthus retroflexus (Amaranthus retroflexus) | weeding effect in post-emergence stage, activity level (growth control rate), Digitaria sanguinalis (Digitaria sanguinalis) | weeding effect in post-emergence stage, activity level (growth control rate), Echinochloa crusgali (Echinochloa crusgali) | weeding effect in post-emergence stage, activity level (growth control rate), Setaria viridis (Setaria viridis)
1 | COc1c(C(=O)Nc2nnc(C)o2)ccc(C(F)(F)F)c1[S@+]([O-])CC(C)O (some centres unmarked) [Compound 336] | 5 (Level 5: growth control rate is above 85%) | 5 (Level 5: growth control rate is above 85%) | 5 (Level 5: growth control rate is above 85%) | 5 (Level 5: growth control rate is above 85%) | 5 (Level 5: growth control rate is above 85%)
2 | COc1c(C(=O)Nc2nnc(C)o2)ccc(C(F)(F)F)c1[S@+]([O-])CC#N [Compound 337] | 5 (Level 5: growth control rate is above 85%) | 5 (Level 5: growth control rate is above 85%) | 5 (Level 5: growth control rate is above 85%) | 5 (Level 5: growth control rate is above 85%) | 5 (Level 5: growth control rate is above 85%)
3 | COc1c(C(=O)Nc2nnc(C)o2)ccc(C(F)(F)F)c1[S@+]([O-])CCC#N [Compound 338] | 5 (Level 5: growth control rate is above 85%) | 5 (Level 5: growth control rate is above 85%) | 5 (Level 5: growth control rate is above 85%) | 5 (Level 5: growth control rate is above 85%) | 5 (Level 5: growth control rate is above 85%)
4 | COc1c(C(=O)Nc2nnc(C)o2)ccc(C(F)(F)F)c1[S@+]([O-])CCCN [Compound 339] | 5 (Level 5: growth control rate is above 85%) | 5 (Level 5: growth control rate is above 85%) | 5 (Level 5: growth control rate is above 85%) | 5 (Level 5: growth control rate is above 85%) | 5 (Level 5: growth control rate is above 85%)
5 | COc1c(C(=O)Nc2nnc(C)o2)ccc(C(F)(F)F)c1[S@+]([O-])CCN(C)C [Compound 340] | 5 (Level 5: growth control rate is above 85%) | 5 (Level 5: growth control rate is above 85%) | 5 (Level 5: growth control rate is above 85%) | 5 (Level 5: growth control rate is above 85%) | 5 (Level 5: growth control rate is above 85%)
6 | COc1c(C(=O)Nc2nnc(C)o2)ccc(C(F)(F)F)c1[S@+]([O-])CC(=O)O [Compound 341] | 5 (Level 5: growth control rate is above 85%) | 5 (Level 5: growth control rate is above 85%) | 5 (Level 5: growth control rate is above 85%) | 5 (Level 5: growth control rate is above 85%) | 5 (Level 5: growth control rate is above 85%)
7 | COC[S@+]([O-])c1c(C(F)(F)F)ccc(C(=O)Nc2nnc(C)o2)c1OC [Compound 342] | 5 (Level 5: growth control rate is above 85%) | 5 (Level 5: growth control rate is above 85%) | 5 (Level 5: growth control rate is above 85%) | 5 (Level 5: growth control rate is above 85%) | 5 (Level 5: growth control rate is above 85%)
8 | CCOC[S@+]([O-])c1c(C(F)(F)F)ccc(C(=O)Nc2nnc(C)o2)c1OC [Compound 343] | 5 (Level 5: growth control rate is above 85%) | 5 (Level 5: growth control rate is above 85%) | 5 (Level 5: growth control rate is above 85%) | 5 (Level 5: growth control rate is above 85%) | 5 (Level 5: growth control rate is above 85%)
9 | COCC[S@@+]([O-])c1c(C(F)(F)F)ccc(C(=O)Nc2nnc(C)o2)c1OC [Compound 344] | 5 (Level 5: growth control rate is above 85%) | 5 (Level 5: growth control rate is above 85%) | 5 (Level 5: growth control rate is above 85%) | 5 (Level 5: growth control rate is above 85%) | 5 (Level 5: growth control rate is above 85%)
10 | COCCC[S@@+]([O-])c1c(C(F)(F)F)ccc(C(=O)Nc2nnc(C)o2)c1OC [Compound 345] | 5 (Level 5: growth control rate is above 85%) | 5 (Level 5: growth control rate is above 85%) | 5 (Level 5: growth control rate is above 85%) | 5 (Level 5: growth control rate is above 85%) | 5 (Level 5: growth control rate is above 85%)
11 | COc1c(C(=O)Nc2nnc(C)o2)ccc(C(F)(F)F)c1[S@+]([O-])C1COC1 [Compound 346] | 5 (Level 5: growth control rate is above 85%) | 5 (Level 5: growth control rate is above 85%) | 5 (Level 5: growth control rate is above 85%) | 5 (Level 5: growth control rate is above 85%) | 5 (Level 5: growth control rate is above 85%)
12 | COc1c(C(=O)Nc2nnc(C)o2)ccc(C(F)(F)F)c1[S+]([O-])COCc1ccccc1 (centres unmarked) [Compound 347] | 5 (Level 5: growth control rate is above 85%) | 5 (Level 5: growth control rate is above 85%) | 5 (Level 5: growth control rate is above 85%) | 5 (Level 5: growth control rate is above 85%) | 5 (Level 5: growth control rate is above 85%)
13 | CCC[S@@+]([O-])c1c(C(F)(F)F)ccc(C(=O)Nc2nnco2)c1F [Compound 357] | 5 (Level 5: growth control rate is above 85%) | 5 (Level 5: growth control rate is above 85%) | 5 (Level 5: growth control rate is above 85%) | 5 (Level 5: growth control rate is above 85%) | 5 (Level 5: growth control rate is above 85%)
14 | CCC[S@@+]([O-])c1c(C(F)(F)F)ccc(C(=O)Nc2nnc(CC)o2)c1F [Compound 358] | 5 (Level 5: growth control rate is above 85%) | 5 (Level 5: growth control rate is above 85%) | 5 (Level 5: growth control rate is above 85%) | 5 (Level 5: growth control rate is above 85%) | 5 (Level 5: growth control rate is above 85%)
15 | CCC[S@@+]([O-])c1c(C(F)(F)F)ccc(C(=O)Nc2nnc(C(C)C)o2)c1F [Compound 359] | 5 (Level 5: growth control rate is above 85%) | 5 (Level 5: growth control rate is above 85%) | 5 (Level 5: growth control rate is above 85%) | 5 (Level 5: growth control rate is above 85%) | 5 (Level 5: growth control rate is above 85%)
16 | CC[S@@+]([O-])c1c(C(F)(F)F)ccc(C(=O)Nc2nnco2)c1OC [Compound 423] | 5 (Level 5: growth control rate is above 85%) | 5 (Level 5: growth control rate is above 85%) | 5 (Level 5: growth control rate is above 85%) | 5 (Level 5: growth control rate is above 85%) | 5 (Level 5: growth control rate is above 85%)
